Test results reported in PMC3893891 (Journal of biomolecular screening, 2012).

Tests used:
Type in all cases: biochemical
Details in all cases: OMFP substrate
[1] = target: T1, PTP1B (Homo sapiens, UniProt P18031); assay: Phosphatase assay of PTP1B
T1 sequence (P18031 1-435): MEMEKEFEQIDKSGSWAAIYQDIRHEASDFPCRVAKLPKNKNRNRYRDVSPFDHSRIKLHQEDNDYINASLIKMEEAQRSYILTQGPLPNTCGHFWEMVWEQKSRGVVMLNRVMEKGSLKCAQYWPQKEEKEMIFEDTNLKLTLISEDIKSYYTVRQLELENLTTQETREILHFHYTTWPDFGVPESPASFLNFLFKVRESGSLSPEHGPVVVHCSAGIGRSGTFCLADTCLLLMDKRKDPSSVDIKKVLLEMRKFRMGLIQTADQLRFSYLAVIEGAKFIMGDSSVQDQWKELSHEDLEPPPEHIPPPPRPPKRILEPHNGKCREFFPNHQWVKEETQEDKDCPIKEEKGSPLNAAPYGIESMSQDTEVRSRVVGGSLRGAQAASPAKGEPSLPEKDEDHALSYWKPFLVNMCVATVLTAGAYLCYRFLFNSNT

[2] = target: T2, PPM1A (Homo sapiens, UniProt P35813); assay: Phosphatase assay of PPM1A
T2 sequence (P35813 1-382): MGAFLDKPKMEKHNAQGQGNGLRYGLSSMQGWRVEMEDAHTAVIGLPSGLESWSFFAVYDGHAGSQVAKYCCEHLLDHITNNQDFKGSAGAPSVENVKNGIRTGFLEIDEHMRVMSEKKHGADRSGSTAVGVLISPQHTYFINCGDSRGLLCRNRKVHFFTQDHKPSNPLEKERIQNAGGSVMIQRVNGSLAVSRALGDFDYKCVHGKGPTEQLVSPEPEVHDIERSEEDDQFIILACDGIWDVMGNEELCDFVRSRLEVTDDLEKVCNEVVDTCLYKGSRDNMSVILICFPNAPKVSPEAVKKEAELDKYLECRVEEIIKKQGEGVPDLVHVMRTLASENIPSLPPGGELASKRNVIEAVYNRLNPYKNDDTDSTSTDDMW

[3] = target: T3, Scp1 (Homo sapiens, UniProt Q9GZU7); assay: Phosphatase assay of Scp1
T3 sequence (Q9GZU7 1-261): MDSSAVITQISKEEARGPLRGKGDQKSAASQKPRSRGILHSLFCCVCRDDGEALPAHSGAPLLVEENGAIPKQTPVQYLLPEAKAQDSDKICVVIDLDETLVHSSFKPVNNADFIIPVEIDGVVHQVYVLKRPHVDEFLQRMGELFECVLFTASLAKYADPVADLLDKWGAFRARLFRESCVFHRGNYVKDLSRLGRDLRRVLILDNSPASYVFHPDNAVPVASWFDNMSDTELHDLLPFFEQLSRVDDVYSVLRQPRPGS

O=C(N/N=C/c1ccc(Sc2ccccn2)o1)c1cccc([N+](=O)[O-])c1 [MLS000700592]
does not significantly inhibit: inhibition of PTP1B phosphatase activity [1] | inhibition of PPM1A phosphatase activity [2] | inhibition of Scp1 phosphatase activity [3]

O=C(N/N=C/c1ccc(Sc2ccccn2)o1)c1ccccc1 [NCGC00241225]
does not significantly inhibit: inhibition of PTP1B phosphatase activity [1] | inhibition of PPM1A phosphatase activity [2] | inhibition of Scp1 phosphatase activity [3]
